Source: ChEMBL document CHEMBL1201862, “PubChem BioAssay data set” (2004)
Active and inactive are the calls of the source.

Legend:
Kallikrein-7 = Kallikrein-7 (Homo sapiens, UniProt P49862); assay: Fluorescence Intensity-based biochemical primary high throughput dose response assay to identify activators of kallikrein-7 (K7) zymogen.
Prothrombin = Prothrombin (Homo sapiens, UniProt P00734); assay: Thrombin 1536 HTS Dose Response Confirmation. [Related pubchem assays: 1046 (Thrombin 1536 HTS; hits were confirmed in this assay)]; assay type: functional
[1] = Trypanosoma cruzi growth suppression in host cells – NIH3T3 host cells, beta-gal luminescence, confirmation (AID 2044); assay type: functional, cell-based;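 further: intracellular parasites grown in NIH/3T3 mouse fibroblasts as host cells; luminescent beta-galactosidase reporter signal from transgenic T. cruzi replicating inside host cells; inhibitors lower the luminescence signal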
[2] = NIH3T3 cell viability loss – ATP luminescence, mouse fibroblasts, counter-screen, dose response (AID 2010); assay type: functional, cell-based;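 further: cells exposed to compound for about 90 hours before reading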
[3] = CellTiter-Glo luminescence survival assay, SW480 colon tumor line, concentration-response curve, half-maximal inhibitory concentration (AID 1117338); assay type: functional
[4] = cytotoxicity toward HCT116 cells – cell-based, CellTiter-Glo luminescence, IC50, dose response (AID 1117332); assay type: functional; conditions: HCT-116
[5] = Reduced DLD-1 viability, concentration-response, CellTiter-Glo luminescence (AID 1117352); assay type: functional
[6] = HCT116 cell viability decrease, GSK3B pretreatment – CellTiter-Glo, IC50, dose response (AID 1117339); assay type: functional; conditions: HCT-116
[7] = cytotoxicity toward HT-29 cells – cell-based, CellTiter-Glo luminescence, IC50, dose response (AID 1117330); assay type: functional
[8] = SNU-C1 cell viability reduction, dose response, CellTiter-Glo luminescence (AID 1117323); assay type: functional, cell-based
[9] = RKO cell viability reduction, dose response, CellTiter-Glo luminescence (AID 1117322); assay type: functional
[10] = cytotoxicity toward Colo320 cells – cell-based, CellTiter-Glo luminescence, IC50, dose response (AID 1117334); assay type: functional; conditions: COLO 320
[11] = target: T1, Long-chain-fatty-acid--AMP ligase FadD28 (Mycobacterium tuberculosis, UniProt P9WQ59); assay: Fluorescence polarization aasay to screen for inhibitors that compete for the binding of FadD28 to a bisubstrate Measured in Biochemical System Using Plate Reader - 2147-01_Inhibitor_Dose_CherryPick_Activity.; assay type: functional, Mycobacterium tuberculosis H37Rv
T1 sequence (P9WQ59 whole entry): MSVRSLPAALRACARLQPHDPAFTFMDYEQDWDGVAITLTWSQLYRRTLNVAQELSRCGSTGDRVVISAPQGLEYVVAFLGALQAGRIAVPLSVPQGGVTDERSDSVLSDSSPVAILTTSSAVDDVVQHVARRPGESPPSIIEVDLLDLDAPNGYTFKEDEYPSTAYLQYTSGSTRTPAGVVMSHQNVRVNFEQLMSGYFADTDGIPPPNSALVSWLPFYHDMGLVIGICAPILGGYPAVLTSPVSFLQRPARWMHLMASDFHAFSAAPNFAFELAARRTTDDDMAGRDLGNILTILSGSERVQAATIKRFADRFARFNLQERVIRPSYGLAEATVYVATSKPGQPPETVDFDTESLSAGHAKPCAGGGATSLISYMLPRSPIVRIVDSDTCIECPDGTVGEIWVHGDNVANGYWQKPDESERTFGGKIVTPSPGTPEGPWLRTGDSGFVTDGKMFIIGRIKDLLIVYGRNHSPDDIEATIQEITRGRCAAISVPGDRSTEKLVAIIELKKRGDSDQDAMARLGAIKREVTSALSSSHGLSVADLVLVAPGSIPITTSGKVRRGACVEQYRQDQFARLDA

cells [12] = assay: cells
Major prion protein = Major prion protein (Homo sapiens, UniProt P04156); assay type: functional, cell-based
cells [13] = assay type: functional, cell-based
cells [14] = assay type: functional, cell-based; remark: listed apart in the source
[15] = Dd2 malaria parasite growth inhibition potency – SYBR Green, dry powder samples, dose response (AID 1159566); assay type: functional, cell-based;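 further: potency for growth inhibition with lower SYBR green DNA signal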
[16] = P. falciparum Dd2 growth inhibitors, dose response, SYBR Green, cherry-picked samples (AID 1159567); assay type: functional, cell-based
[17] = toxicity to human HepG2 hepatoma cells – cell-based, plate reader, dry powder samples, cytotoxicity control, dose response (AID 1159569); assay type: functional;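 further: inhibitor potency with signal falling toward the positive control level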
[18] = growth inhibition of yeast DHODH-expressing 3D7 parasites – SYBR Green, dry powder samples, dose response (AID 1159570); assay type: functional, cell-based;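 further: parasite growth measured after 72 hours of compound exposure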
[19] = growth inhibition of PfATP4-mutant resistant parasites – NITD609-resistant line, SYBR Green, dry powder, dose response (AID 1159571); assay type: functional, cell-based;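 further: parasites synchronized at ring stage by sorbitol before testing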

SMILES: O=c1c2cc(N3CCOCC3)ccc2[nH]c(=S)n1CCCN1CCCCC1
- EC50 (Kallikrein-7): 29.7 µM (inactive)

SMILES: Cc1oc2c(c(C)cc3oc(=O)c(CC(=O)N[C@@H](CCCNC(N)=O)C(=O)O)c(C)c32)c1C
- EC50 (Kallikrein-7): 69.3 µM (inactive)

SMILES: COC(=O)c1ccc(COC(=O)CNS(=O)(=O)c2ccccc2)cc1
- IC50 (Prothrombin): > 50 µM (not active)

SMILES: Cc1cc(C)c2c3c(sc2n1)C(c1cccc(F)c1)C(C#N)=C(N)O3 (centres undefined)
- IC50 (Prothrombin): > 50 µM (not active)
- EC50 [1]: 0.191 µM (active)
- EC50 [2]: > 30 µM (not active)

SMILES: COCC(C)N(C(=O)CCl)c1c(C)csc1C (centres undefined)
- IC50 [3]: > 20 µM (inactive)
- IC50 [4]: > 20 µM (inactive)
- IC50 [5]: > 20 µM (inactive)
- IC50 [6]: > 20 µM (inactive)
- IC50 [7]: > 20 µM (inactive)
- IC50 [8]: > 20 µM (inactive)
- IC50 [9]: > 20 µM (inactive)
- IC50 [10]: > 20 µM (inactive)

SMILES: CCc1c(O)n(-c2ccccc2)c(SCC(=O)Nc2nc3ccccc3s2)nc1=O
- AC50 [11]: > 100 µM (inactive)

SMILES: COc1ccc(OC)c(C2NC(=O)N(C)C(C)=C2C(=O)OCc2ccccc2)c1 (centres undefined)
- IC50 (cells [12]): > 138 µM (inactive)
- IC50 (Major prion protein): 6.04 µM (active)

SMILES: COc1ccc(-c2nc3c(C)cc(Br)cn3c2Cc2cccc(Cl)c2)cc1OC
- IC50 (cells [12]): > 138 µM (inactive)
- IC50 (Major prion protein): 7.52 µM (active)

SMILES: c1ccc(N/N=C(\Cc2ncc[nH]2)c2ccccc2)cc1
- IC50 (cells [13]): > 29.9 µM (inactive)
- EC50 (cells [14]): > 29.9 µM (inactive)

SMILES: CN(C)C(=O)c1cccc(-c2cccc(-c3nc(C(=O)NC4CCCCC4)cc4c3[C@@H](CCO)N([S@+]([O-])C(C)(C)C)C4)c2)c1
- AC50 [15]: 0.232 µM (active)
- AC50 [16]: 1.62 µM (active)
- AC50 [17]: 31.4 µM (active)
- AC50 [18]: 0.806 µM (active)
- AC50 [19]: 0.484 µM (active)

SMILES: O=C(Nc1cccc(F)c1)N1CCCCN2[C@@H](CO)[C@H](c3ccc(C#Cc4cccnc4)cc3)[C@@H]2C1
- AC50 [15]: 0.368 µM (active)
- AC50 [16]: 0.606 µM (active)
- AC50 [17]: 28.4 µM (active)
- AC50 [18]: 0.247 µM (active)
- AC50 [19]: 0.425 µM (active)

SMILES: CCCCCCCCCCCCCCCCC(C(=O)O)C(O)(CC(=O)O)C(=O)O (centres undefined)
- IC50 [3]: 1.2 µM (active)
- IC50 [4]: 8.68 µM (inactive)
- IC50 [5]: 4.28 µM (active)
- IC50 [6]: 4.34 µM (active)
- IC50 [7]: 4.1 µM (active)
- IC50 [8]: 1.36 µM (active)
- IC50 [9]: 3.48 µM (active)
- IC50 [10]: 1.36 µM (active)
